# Measured values reported in US12281057B2 (VERTEX PHARMACEUTICALS INCORPORATED, priority 2017, dated 2025).
# Target: truncated form of human NaV 1.8 with full channel activity (Homo sapiens, UniProt Q9Y5Y9)
# Assay: E-VIPR Assay Method A for detecting and measuring Nav inhibition (HEK cells, membrane potential FRET dyes, electrical stimulation)
# Assay type: cell-based
# Details: HEK cells expressing human NaV 1.8, HS (human serum) in compound loading buffer, 11 point dose response, top dose 3 μM, Table 20A, read-out: Nav 1.8 MedChem Optical Assay EVIPR Assay Method A HS IC50
# In short: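 Read-out: FRET membrane-potential dye ratio (460/580 nm) before and during E-VIPR field stimulation at 10 Hz for 10 s, expressed as % activity between DMSO and positive controls. Cells: HEK with truncated human NaV1.8; compound preincubated 30 min at room temp, final DMSO 0.625%.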
# Chain of truncated form of human NaV 1.8 with full channel activity (Q9Y5Y9 126-1722 limits assumed): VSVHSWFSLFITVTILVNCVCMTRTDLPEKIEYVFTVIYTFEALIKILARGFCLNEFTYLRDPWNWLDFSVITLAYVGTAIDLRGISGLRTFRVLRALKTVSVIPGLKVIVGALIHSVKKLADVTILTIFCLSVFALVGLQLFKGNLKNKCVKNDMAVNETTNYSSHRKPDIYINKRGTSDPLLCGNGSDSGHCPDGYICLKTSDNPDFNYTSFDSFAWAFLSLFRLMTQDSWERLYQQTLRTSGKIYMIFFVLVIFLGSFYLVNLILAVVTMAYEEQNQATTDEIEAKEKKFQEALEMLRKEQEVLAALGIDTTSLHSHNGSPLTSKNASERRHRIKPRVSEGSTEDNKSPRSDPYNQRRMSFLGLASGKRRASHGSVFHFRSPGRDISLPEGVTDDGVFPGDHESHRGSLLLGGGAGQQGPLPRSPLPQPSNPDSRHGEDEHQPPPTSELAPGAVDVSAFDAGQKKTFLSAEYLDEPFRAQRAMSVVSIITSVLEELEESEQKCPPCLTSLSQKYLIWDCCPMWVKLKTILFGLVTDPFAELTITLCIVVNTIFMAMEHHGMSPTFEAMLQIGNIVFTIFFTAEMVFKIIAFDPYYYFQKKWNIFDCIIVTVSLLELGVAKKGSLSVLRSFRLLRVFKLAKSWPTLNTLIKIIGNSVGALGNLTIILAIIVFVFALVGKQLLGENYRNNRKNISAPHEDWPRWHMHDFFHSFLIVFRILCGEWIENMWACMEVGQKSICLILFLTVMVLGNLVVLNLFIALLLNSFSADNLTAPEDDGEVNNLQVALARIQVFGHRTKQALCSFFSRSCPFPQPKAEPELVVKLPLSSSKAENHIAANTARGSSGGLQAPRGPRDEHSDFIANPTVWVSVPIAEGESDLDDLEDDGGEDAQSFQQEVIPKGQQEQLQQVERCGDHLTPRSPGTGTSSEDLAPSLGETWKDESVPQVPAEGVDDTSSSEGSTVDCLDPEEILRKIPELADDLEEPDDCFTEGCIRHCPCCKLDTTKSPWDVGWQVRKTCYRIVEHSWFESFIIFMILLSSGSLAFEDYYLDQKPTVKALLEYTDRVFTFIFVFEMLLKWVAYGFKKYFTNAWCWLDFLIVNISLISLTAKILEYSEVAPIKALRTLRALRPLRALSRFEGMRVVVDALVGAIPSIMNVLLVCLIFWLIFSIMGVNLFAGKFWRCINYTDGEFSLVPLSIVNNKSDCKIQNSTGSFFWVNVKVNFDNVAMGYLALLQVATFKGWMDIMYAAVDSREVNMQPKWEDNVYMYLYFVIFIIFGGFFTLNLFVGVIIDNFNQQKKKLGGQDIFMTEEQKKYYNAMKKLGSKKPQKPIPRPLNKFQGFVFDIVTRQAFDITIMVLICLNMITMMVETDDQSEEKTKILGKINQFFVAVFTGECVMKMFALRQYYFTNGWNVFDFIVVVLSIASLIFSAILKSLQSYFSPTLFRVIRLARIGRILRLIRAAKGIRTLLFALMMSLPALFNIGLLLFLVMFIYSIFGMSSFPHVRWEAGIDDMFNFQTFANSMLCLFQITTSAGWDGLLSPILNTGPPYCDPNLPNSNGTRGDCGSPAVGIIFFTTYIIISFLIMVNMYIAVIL
row,Compound,IC50
1,"NC(=O)c1cc(NC(=O)c2c(Oc3ccc(OC(F)(F)F)nc3)ccc(C(F)(F)F)c2F)ccc1F [Compound 69, N-(3-carbamoyl-4-fluoro-phenyl)-2-fluoro-6-[[6-(trifluoromethoxy)-3-pyridyl]oxy]-3-(trifluoromethyl)benzamide]",0.056 µM
2,"NC(=O)c1cc(NC(=O)c2c(Oc3ccc(OC(F)(F)F)cc3)ccc(Cl)c2F)ccn1 [Compound 70, 4-[[3-Chloro-2-fluoro-6-[4-(trifluoromethoxy)phenoxy]benzoyl]amino]pyridine-2-carboxamide]",0.053 µM
3,"NC(=O)c1cc(NC(=O)c2c(Oc3ccc(OC(F)(F)F)cc3)ccc(C3CC3)c2F)ccc1F [Compound 71, N-(3-Carbamoyl-4-fluoro-phenyl)-3-cyclopropyl-2-fluoro-6-[4-(trifluoromethoxy)phenoxy]benzamide]",0.04 µM
4,"NC(=O)c1cc(NC(=O)c2c(Oc3ccc(OC(F)(F)F)cc3)ccc(C3CC3)c2F)ccn1 [Compound 72, 4-[[3-Cyclopropyl-2-fluoro-6-[4-(trifluoromethoxy)phenoxy]benzoyl]amino]pyridine-2-carboxamide]",0.175 µM
5,"NC(=O)c1cc(NC(=O)c2c(Oc3ccc(OC(F)(F)F)cc3)ccc(Cl)c2F)ccc1F [Compound 73, N-(3-Carbamoyl-4-fluoro-phenyl)-3-chloro-2-fluoro-6-[4-(trifluoromethoxy)phenoxy]benzamide]",0.023 µM
6,"NC(=O)c1cc(NC(=O)c2c(Oc3ccc(OC(F)(F)F)cc3)ccc(C(F)F)c2F)ccc1F [Compound 74, N-(3-Carbamoyl-4-fluoro-phenyl)-3-(difluoromethyl)-2-fluoro-6-[4-(trifluoromethoxy)phenoxy]benzamide]",0.022 µM
7,"COc1cc(OC(F)(F)F)ccc1Oc1cc(C(F)(F)F)c(F)cc1C(=O)Nc1ccnc(C(N)=O)c1 [Compound 75, 4-[[5-Fluoro-2-[2-methoxy-4-(trifluoromethoxy)phenoxy]-4-(trifluoromethyl)benzoyl]amino]pyridine-2-carboxamide]",0.026 µM
8,"NC(=O)c1cc(NC(=O)c2cc(F)c(C(F)(F)F)cc2Oc2ccc(OC(F)(F)F)cc2)ccn1 [Compound 76, 4-[[5-Fluoro-2-[4-(trifluoromethoxy)phenoxy]-4-(trifluoromethyl)benzoyl]amino]pyridine-2-carboxamide]",0.35 µM
9,"NC(=O)c1cc(NC(=O)c2cc(F)c(C(F)(F)F)cc2Oc2ccc(OC(F)(F)F)cc2)ccc1F [Compound 77, N-(3-Carbamoyl-4-fluoro-phenyl)-5-fluoro-2-[4-(trifluoromethoxy)phenoxy]-4-(trifluoromethyl)benzamide]",0.15 µM
10,COc1cc(OC(F)(F)F)ccc1Oc1cc(C2CC2)ncc1C(=O)Nc1ccnc(C(N)=O)c1 [Compound 78],0.097 µM
11,"NC(=O)c1cc(NC(=O)c2cc(C(F)(F)C(F)(F)F)ccc2Oc2ccc(OC(F)(F)F)cc2)ccc1F [Compound 79, N-(3-Carbamoyl-4-fluoro-phenyl)-5-(1,1,2,2,2-pentafluoroethyl)-2-[4-(trifluoromethoxy)phenoxy]benzamide]",0.069 µM
12,"NC(=O)c1cc(NC(=O)c2cc(C(F)(F)C(F)(F)F)ccc2Oc2ccc(OC(F)(F)F)cc2)ccn1 [Compound 80, 4-[[5-(1,1,2,2,2-pentafluoroethyl)-2-[4-(trifluoromethoxy)phenoxy]benzoyl]amino]pyridine-2-carboxamide]",0.127 µM
13,COc1cc(OC(F)(F)F)ccc1Oc1ccc(C(F)(F)C(F)(F)F)cc1C(=O)Nc1ccnc(C(N)=O)c1 [Compound 81],0.038 µM
14,"COc1cc(OC(F)(F)F)ccc1Oc1ccc(C(F)(F)F)c(F)c1C(=O)Nc1ccc(C(N)=O)cc1F [Compound 82, N-(4-carbamoyl-2-fluoro-phenyl)-2-fluoro-6-[2-methoxy-4-(trifluoromethoxy)phenoxy]-3-(trifluoromethyl)benzamide]",0.092 µM
15,"NC(=O)c1cc(NC(=O)c2c(Oc3ccc(OC(F)(F)F)cc3)ccc(C(F)F)c2F)ccn1 [Compound 83, 4-[[3-(Difluoromethyl)-2-fluoro-6-[4-(trifluoromethoxy)phenoxy]benzoyl]amino]pyridine-2-carboxamide]",0.048 µM
16,"COc1cc(OC(F)(F)F)ccc1Oc1cc(C(F)(F)F)ncc1C(=O)Nc1cc(C)nc(C(N)=O)c1 [Compound 84, 4-[[4-[2-Methoxy-4-(trifluoromethoxy)phenoxy]-6-(trifluoromethyl)pyridine-3-carbonyl]amino]-6-methyl-pyridine-2-carboxamide]",0.58 µM
17,"NC(=O)c1cc(NC(=O)c2c(Oc3ccc(OC(F)(F)F)cc3)ccc(C(F)(F)F)c2F)ccc1O [Compound 85, N-(3-carbamoyl-4-hydroxy-phenyl)-2-fluoro-6-[4-(trifluoromethoxy)phenoxy]-3-(trifluoromethyl)benzamide]",0.32 µM

row,Compound,IC50
1,"COc1cc(OC(F)(F)F)ccc1Oc1ccc(C(F)(F)F)c(F)c1C(=O)Nc1cc(C)nc(C(N)=O)c1 [Compound 86, 4-[[2-fluoro-6-[2-methoxy-4-(trifluoromethoxy)phenoxy]-3-(trifluoromethyl)benzoyl]amino]-6-methyl-pyridine-2-carboxamide]",0.032 µM
2,"COc1cc(OC(F)(F)F)ccc1Oc1ccc(C(F)(F)F)c(F)c1C(=O)Nc1cc(C(N)=O)ccn1 [Compound 87, 2-[[2-fluoro-6-[2-methoxy-4-(trifluoromethoxy)phenoxy]-3-(trifluoromethyl)benzoyl]amino]pyridine-4-carboxamide]",0.15 µM
3,"[2H]C([2H])([2H])Oc1cc(OC(F)(F)F)ccc1Oc1cc(C2CC2)ncc1C(=O)Nc1ccc(F)c(C(N)=O)c1 [Compound 88, N-(3-Carbamoyl-4-fluoro-phenyl)-6-cyclopropyl-4-[2-(trideuteriomethoxy)-4-(trifluoromethoxy)phenoxy]pyridine-3-carboxamide]",0.049 µM
4,"NC(=O)c1cccc(NC(=O)c2c(Oc3ccc(OC(F)(F)F)cc3F)ccc(C(F)(F)F)c2F)c1 [Compound 89, N-(3-carbamoylphenyl)-2-fluoro-6-[2-fluoro-4-(trifluoromethoxy)phenoxy]-3-(trifluoromethyl)benzamide]",0.044 µM
5,"NC(=O)c1cc(NC(=O)c2c(Oc3ccc(OC(F)(F)F)cc3F)ccc(C(F)(F)F)c2F)ccn1 [Compound 90, 4-[[2-fluoro-6-[2-fluoro-4-(trifluoromethoxy)phenoxy]-3-(trifluoromethyl)benzoyl]amino]pyridine-2-carboxamide]",0.038 µM
6,"COc1c(C(F)(F)F)ccc(Oc2ccc(OC(F)(F)F)cc2)c1C(=O)Nc1ccnc(C(N)=O)c1 [Compound 91, 4-[[2-Methoxy-6-[4-(trifluoromethoxy)phenoxy]-3-(trifluoromethyl)benzoyl]amino]pyridine-2-carboxamide]",0.04 µM
7,"COc1cc(OC(F)(F)F)ccc1Oc1ccc(C(F)(F)F)c(OC)c1C(=O)Nc1ccc(F)c(C(N)=O)c1 [Compound 92, N-(3-Carbamoyl-4-fluoro-phenyl)-2-methoxy-6-[2-methoxy-4-(trifluoromethoxy)phenoxy]-3-(trifluoromethyl)benzamide]",0.002 µM
8,"COc1cc(OC(F)(F)F)ccc1Oc1cc(C(C)(C)C)ncc1C(=O)Nc1ccnc(C(N)=O)c1 [Compound 93, 6-tert-Butyl-N-(2-carbamoyl-4-pyridyl)-4-[2-methoxy-4-(trifluoromethoxy)phenoxy]pyridine-3-carboxamide]",0.063 µM
9,"COc1cc(OC(F)(F)F)ccc1Oc1cc(C(C)(C)C)ncc1C(=O)Nc1ccc(F)c(C(N)=O)c1 [Compound 94, 6-tert-Butyl-N-(3-carbamoyl-4-fluoro-phenyl)-4-[2-methoxy-4-(trifluoromethoxy)phenoxy]pyridine-3-carboxamide]",0.018 µM
10,"COc1cc(OC(F)(F)F)ccc1Oc1ccc(C(F)(F)F)c(F)c1C(=O)Nc1ccc(F)c(C(=O)N(C)C)c1 [Compound 95, N-[3-(dimethylcarbamoyl)-4-fluoro-phenyl]-2-fluoro-6-[2-methoxy-4-(trifluoromethoxy)phenoxy]-3-(trifluoromethyl)benzamide]",0.045 µM
11,"COc1cc(OC(F)(F)F)ccc1Oc1ccc(C(F)(F)F)c(F)c1C(=O)Nc1cccc(C(=O)N(C)C)c1 [Compound 96, N-[3-(dimethylcarbamoyl)phenyl]-2-fluoro-6-[2-methoxy-4-(trifluoromethoxy)phenoxy]-3-(trifluoromethyl)benzamide]",0.054 µM
12,"COc1cc(OC(F)(F)F)ccc1Oc1ccc(C(F)(F)F)c(F)c1C(=O)Nc1ccnc(C(=O)N(C)C)c1 [Compound 97, 4-[[2-fluoro-6-[2-methoxy-4-(trifluoromethoxy)phenoxy]-3-(trifluoromethyl)benzoyl]amino]-N,N-dimethyl-pyridine-2-carboxamide]",0.02 µM
13,"CNC(=O)c1cccc(NC(=O)c2c(Oc3ccc(OC(F)(F)F)cc3OC)ccc(C(F)(F)F)c2F)c1 [Compound 98, 2-fluoro-6-[2-methoxy-4-(trifluoromethoxy)phenoxy]-N-[3-(methylcarbamoyl)phenyl]-3-(trifluoromethyl)benzamide]",0.015 µM
14,"CNC(=O)c1cc(NC(=O)c2c(Oc3ccc(OC(F)(F)F)cc3OC)ccc(C(F)(F)F)c2F)ccc1F [Compound 99, 2-fluoro-N-[4-fluoro-3-(methylcarbamoyl)phenyl]-6-[2-methoxy-4-(trifluoromethoxy)phenoxy]-3-(trifluoromethyl)benzamide]",0.003 µM
15,"COc1cc(OC(F)(F)F)ccc1Oc1ccc(C(F)(F)F)c(F)c1C(=O)Nc1cc(F)cc(C(N)=O)c1 [Compound 100, N-(3-carbamoyl-5-fluoro-phenyl)-2-fluoro-6-[2-methoxy-4-(trifluoromethoxy)phenoxy]-3-(trifluoromethyl)benzamide]",0.009 µM
16,"NC(=O)c1cc(F)cc(NC(=O)c2c(Oc3ccc(OC(F)(F)F)cc3)ccc(C(F)(F)F)c2F)c1 [Compound 101, N-(3-carbamoyl-5-fluoro-phenyl)-2-fluoro-6-[4-(trifluoromethoxy)phenoxy]-3-(trifluoromethyl)benzamide]",0.135 µM
